Test results published in US11312712B2, “Azabenzimidazoles and their use as AMPA receptor modulators” (Janssen Pharmaceutica NV, priority 2015, dated 2022).

Biological target: GluA1o-γ8 (GRIA1o-CACNG8 fusion construct) (Homo sapiens (Human), UniProt P42261+Q8WXS5)
Experiment: Calcium flux assay (FLIPR), inhibition of TARP γ8 dependent AMPA receptor activity
Assay type: cell-based
Conditions: GluA1o-γ8 (GRIA1o-CACNG8 fusion) in HEK293 cells, calcium flux after 15 μM glutamate
Method in brief: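 Glutamate (15 μM) was added to a stable HEK293 line carrying the GluA1o–γ8 fusion, which had been preincubated with compound and calcium dye in HEPES buffer, pH 7.4. Normalized FLIPR fluorescence (no compound vs 10 μM CP465022) was fitted with four parameters; pIC50 is the midpoint's negative log.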

Sequence of GluA1o-γ8 (GRIA1o-CACNG8 fusion construct) (P42261 other isoform, or with tags, fused parts or gaps): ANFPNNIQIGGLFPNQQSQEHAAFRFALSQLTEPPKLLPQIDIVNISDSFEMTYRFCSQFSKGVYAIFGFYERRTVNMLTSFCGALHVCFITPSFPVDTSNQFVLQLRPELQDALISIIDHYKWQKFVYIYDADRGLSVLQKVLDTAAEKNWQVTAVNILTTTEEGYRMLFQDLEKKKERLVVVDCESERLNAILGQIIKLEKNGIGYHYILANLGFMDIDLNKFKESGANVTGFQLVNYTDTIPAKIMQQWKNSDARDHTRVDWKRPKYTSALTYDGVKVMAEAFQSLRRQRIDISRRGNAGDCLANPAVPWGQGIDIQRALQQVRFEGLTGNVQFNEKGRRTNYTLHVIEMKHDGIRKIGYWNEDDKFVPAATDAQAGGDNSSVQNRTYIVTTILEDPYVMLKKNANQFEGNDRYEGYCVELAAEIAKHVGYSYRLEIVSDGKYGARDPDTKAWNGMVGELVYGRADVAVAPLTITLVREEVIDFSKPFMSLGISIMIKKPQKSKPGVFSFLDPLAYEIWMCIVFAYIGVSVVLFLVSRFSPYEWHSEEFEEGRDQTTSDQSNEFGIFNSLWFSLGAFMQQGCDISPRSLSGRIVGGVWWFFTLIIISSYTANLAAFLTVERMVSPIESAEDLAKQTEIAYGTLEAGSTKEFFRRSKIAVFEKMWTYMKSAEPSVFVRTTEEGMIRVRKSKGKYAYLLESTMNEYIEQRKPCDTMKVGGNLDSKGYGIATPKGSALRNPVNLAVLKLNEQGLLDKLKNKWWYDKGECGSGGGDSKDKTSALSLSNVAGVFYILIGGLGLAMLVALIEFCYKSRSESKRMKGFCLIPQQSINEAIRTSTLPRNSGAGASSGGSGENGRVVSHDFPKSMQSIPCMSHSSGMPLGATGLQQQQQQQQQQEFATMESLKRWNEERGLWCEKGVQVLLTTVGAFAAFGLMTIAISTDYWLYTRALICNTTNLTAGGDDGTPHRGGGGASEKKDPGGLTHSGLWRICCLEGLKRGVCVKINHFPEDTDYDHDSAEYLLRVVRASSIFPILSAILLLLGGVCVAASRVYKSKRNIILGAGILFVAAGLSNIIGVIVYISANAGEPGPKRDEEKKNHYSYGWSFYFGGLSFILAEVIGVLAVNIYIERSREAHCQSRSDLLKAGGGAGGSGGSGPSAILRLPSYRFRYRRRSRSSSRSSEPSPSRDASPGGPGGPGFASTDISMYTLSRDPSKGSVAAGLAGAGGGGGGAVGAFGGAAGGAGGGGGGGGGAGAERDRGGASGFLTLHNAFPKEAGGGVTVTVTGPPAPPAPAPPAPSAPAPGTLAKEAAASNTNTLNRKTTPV

| SMILES | IC50 [nM] |
| --- | --- |
| CCc1ccc2nc(C(F)(F)F)n(-c3ccc4[nH]ncc4c3)c2n1 [Example 193, 5-Ethyl-3-(1H-indazol-5-yl)-2-(trifluoromethyl)imidazo[4,5-b]pyridine] | 1.58 |
| Cc1cc(-n2cnc3ccc(C(F)(F)F)nc32)cc2cn[nH]c12 [Example 194, 3-(7-Methyl-1H-indazol-5-yl)-5-(trifluoromethyl)imidazo[4,5-b]pyridine] | 20 |
| Cc1cc(-n2c(-c3ccc(F)cc3)nc3ccc(C(F)(F)F)nc32)cc2cn[nH]c12 [Example 195, 2-(4-Fluorophenyl)-3-(7-methyl-1H-indazol-5-yl)-5-(trifluoromethyl)imidazo[4,5-b]pyridine] | 0.0126 |
| CCOc1nc2ccc(C(F)(F)F)nc2n1-c1ccc2[nH]nc(F)c2c1 [Example 196, 2-Ethoxy-3-(3-fluoro-1H-indazol-5-yl)-5-(trifluoromethyl)imidazo[4,5-b]pyridine] | 25.1 |
| Fc1n[nH]c2ccc(-n3c(C4CC4)nc4ccc(C(F)(F)F)nc43)cc12 [Example 197, 2-Cyclopropyl-3-(3-fluoro-1H-indazol-5-yl)-5-(trifluoromethyl)imidazo[4,5-b]pyridine] | 6.31 |
| Cc1cc(-n2c(C(C)C)nc3ccc(C(F)(F)F)nc32)cc2cn[nH]c12 [Example 198, 2-Isopropyl-3-(7-methyl-1H-indazol-5-yl)-5-(trifluoromethyl)imidazo[4,5-b]pyridine] | 0.0316 |
| FC(F)(F)c1nc2cccnc2n1-c1cc(Cl)c2[nH]ncc2c1 [Example 199, 3-(7-Chloro-1H-indazol-5-yl)-2-(trifluoromethyl)imidazo[4,5-b]pyridine] | 2 |
| CC(C)c1nc2cccnc2n1-c1cc(Cl)c2[nH]ncc2c1 [Example 200, 3-(7-Chloro-1H-indazol-5-yl)-2-isopropyl-imidazo[4,5-b]pyridine] | 6.31 |
| Cc1ccnc2c1nc(C(F)(F)F)n2-c1ccc2[nH]ncc2c1 [Example 201, 3-(1H-indazol-5-yl)-7-methyl-2-(trifluoromethyl)imidazo[4,5-b]pyridine] | 100 |
| Cc1ccnc2c1nc(C(F)(F)F)n2-c1cc(Cl)c2[nH]ncc2c1 [Example 202, 3-(7-Chloro-1H-indazol-5-yl)-7-methyl-2-(trifluoromethyl)imidazo[4,5-b]pyridine] | 0.631 |
| Cc1ccnc2c1nc(C(F)(F)F)n2-c1cc(C)c2[nH]ncc2c1 [Example 203, 7-Methyl-3-(7-methyl-1H-indazol-5-yl)-2-(trifluoromethyl)imidazo[4,5-b]pyridine] | 5.01 |
| FC(F)(F)c1ccc2nc(C(F)(F)F)n(-c3cnc4[nH]ncc4c3)c2n1 [Example 204, 3-(1H-pyrazolo[3,4-b]pyridin-5-yl)-2,5-bis(trifluoromethyl)imidazo[4,5-b]pyridine] | 12.6 |
| [O-][n+]1cc(-n2c(C(F)(F)F)nc3ccc(C(F)(F)F)nc32)cc2cn[nH]c21 [Example 205, 3-(7-Oxido-1H-pyrazolo[3,4-b]pyridin-7-ium-5-yl)-2,5-bis(trifluoromethyl)imidazo[4,5-b]pyridine] | 398 |
| O=c1[nH]c2ccc(-n3c(C(F)(F)F)nc4ccc(C(F)F)nc43)cc2s1 [Example 206, 6-[5-(difluoromethyl)-2-(trifluoromethyl)imidazo[4,5-b]pyridin-3-yl]-3H-1,3-benzothiazol-2-one] | 0.316 |
| FC(F)c1ccc2nc(C(F)F)n(-c3cc(Cl)c4[nH]ncc4c3)c2n1 [Example 207, 3-(7-Chloro-1H-indazol-5-yl)-2,5-bis(difluoromethyl)imidazo[4,5-b]pyridine] | 0.0631 |
| FC(F)(F)c1nc2ccc(C3CCC3)nc2n1-c1ccc2[nH]ncc2c1 [Example 208, 5-Cyclobutyl-3-(1H-indazol-5-yl)-2-(trifluoromethyl)imidazo[4,5-b]pyridine] | 0.158 |
| CC(C)c1nc2ccc(C(F)F)nc2n1-c1ccc2[nH]ncc2c1 [Example 210, 5-(Difluoromethyl)-3-(1H-indazol-5-yl)-2-isopropyl-imidazo[4,5-b]pyridine] | 0.631 |
| CC(C)c1nc2ccc(C(C)(F)F)nc2n1-c1ccc2[nH]ncc2c1 [Example 211, 5-(1,1-Difluoroethyl)-3-(1H-indazol-5-yl)-2-isopropyl-imidazo[4,5-b]pyridine] | 5.01 |
| Cc1cc(-n2c(C(F)F)nc3ccc(C(F)F)nc32)cc2cn[nH]c12 [Example 212, 2,5-Bis(difluoromethyl)-3-(7-methyl-1H-indazol-5-yl)imidazo[4,5-b]pyridine] | 0.0794 |
| Cc1ccc2nc(-c3ccnc(F)c3)n(-c3cc(C)c4[nH]ncc4c3)c2n1 [Example 213, 2-(2-Fluoro-4-pyridyl)-5-methyl-3-(7-methyl-1H-indazol-5-yl)imidazo[4,5-b]pyridine] | 0.501 |

| SMILES | IC50 [nM] |
| --- | --- |
| Cc1cc(-n2c(C(C)C)nc3c(N(C)CCF)cc(C(F)(F)F)nc32)cc2cn[nH]c12 [Example 214, N-(2-Fluoroethyl)-2-isopropyl-N-methyl-3-(7-methyl-1H-indazol-5-yl)-5-(trifluoromethyl)imidazo[4,5-b]pyridin-7-amine] | 0.158 |
| O=C1Nc2ccc(-n3c(-c4ccnc(F)c4)nc4ccc(C(F)(F)F)nc43)cc2C1=O [Example 215, 5-[2-(2-Fluoro-4-pyridyl)-5-(trifluoromethyl)imidazo[4,5-b]pyridin-3-yl]indoline-2,3-dione] | 1580 |
| Cc1cc(-n2c(-c3ccnc(F)c3)nc3ccc(C(F)(F)F)nc32)cc2cn[nH]c12 [Example 217, 2-(2-Fluoro-4-pyridyl)-3-(7-methyl-1H-indazol-5-yl)-5-(trifluoromethyl)imidazo[4,5-b]pyridine] | 0.0501 |
| FCCOc1cc(C(F)(F)F)nc2c1nc(C(F)(F)F)n2-c1cc(Cl)c2[nH]ncc2c1 [Example 218, 3-(7-Chloro-1H-indazol-5-yl)-7-(2-fluoroethoxy)-2,5-bis(trifluoromethyl)imidazo[4,5-b]pyridine] | 0.0501 |
| OC/C=C/c1cc(-n2c(C(F)(F)F)nc3ccc(C(F)(F)F)nc32)cc2cn[nH]c12 [Example 219, (E)-3-(5-(2,5-Bis(trifluoromethyl)-3H-imidazo[4,5-b]pyridin-3-yl)-1H-indazol-7-yl)prop-2-en-1-ol] | 15.8 |
| OCCCc1cc(-n2c(C(F)(F)F)nc3ccc(C(F)(F)F)nc32)cc2cn[nH]c12 [Example 220, 3-(5-(2,5-Bis(trifluoromethyl)-3H-imidazo[4,5-b]pyridin-3-yl)-1H-indazol-7-yl)propan-1-ol] | 158 |
| CCCc1cc(-n2c(C(F)(F)F)nc3ccc(C(F)(F)F)nc32)cc2cn[nH]c12 [Example 221, 3-(7-Propyl-1H-indazol-5-yl)-2,5-bis(trifluoromethyl)-3H-imidazo[4,5-b]pyridine] | 0.126 |
| Cc1cc(-n2c(C(F)(F)F)nc3ccc(/C=C/CO)nc32)cc2cn[nH]c12 [Example 222, (E)-3-(3-(7-Methyl-1H-indazol-5-yl)-2-(trifluoromethyl)-3H-imidazo[4,5-b]pyridin-5-yl)prop-2-en-1-ol] | 31.6 |
| Cc1cc(-n2c(C(F)(F)F)nc3ccc(CCCO)nc32)cc2cn[nH]c12 [Example 223, 3-(3-(7-Methyl-1H-indazol-5-yl)-2-(trifluoromethyl)-3H-imidazo[4,5-b]pyridin-5-yl)propan-1-ol] | 100 |
| CCCc1ccc2nc(C(F)(F)F)n(-c3cc(C)c4[nH]ncc4c3)c2n1 [Example 224, 3-(7-Methyl-1H-indazol-5-yl)-5-propyl-2-(trifluoromethyl)-3H-imidazo[4,5-b]pyridine] | 0.158 |
| Oc1cc(-c2nc3ccc(C(F)(F)F)nc3n2-c2ccc3[nH]ncc3c2)ccn1 [Example 225, 4-[3-(1H-Indazol-5-yl)-5-(trifluoromethyl)imidazo[4,5-b]pyridin-2-yl]pyridin-2-ol] | 251 |
| FC(F)(F)c1ccc2ncn(-c3ccc4[nH]ncc4c3)c2n1 [Example 226, 3-(1H-Indazol-5-yl)-5-(trifluoromethyl)imidazo[4,5-b]pyridine] | 398 |
| FC(F)c1ccc2nc(C3CC3)n(-c3cc(Cl)c4[nH]ncc4c3)c2n1 [Example 227, 3-(7-Chloro-1H-indazol-5-yl)-2-cyclopropyl-5-(difluoromethyl)imidazo[4,5-b]pyridine] | 0.0501 |
| Cc1cc(-n2c(-c3ccc(F)cc3)nc3ccc(C(F)F)nc32)cc2cn[nH]c12 [Example 228, 5-(Difluoromethyl)-2-(4-fluorophenyl)-3-(7-methyl-1H-indazol-5-yl)imidazo[4,5-b]pyridine] | 0.0158 |
| Fc1ccc(-c2nc3ccc(C(F)F)nc3n2-c2cc(Cl)c3[nH]ncc3c2)cc1 [Example 229, 3-(7-Chloro-1H-indazol-5-yl)-5-(difluoromethyl)-2-(4-fluorophenyl)imidazo[4,5-b]pyridine] | 0.00631 |
| O=c1[nH]c2ccc(-n3c(C(F)(F)F)nc4c(N5CCOCC5)cc(C(F)(F)F)nc43)cc2s1 [Example 230, 6-[7-Morpholino-2,5-bis(trifluoromethyl)imidazo[4,5-b]pyridin-3-yl]-3H-1,3-benzothiazol-2-one] | 1 |
| FC(F)(F)c1cc(N2CCOCC2)c2nc(C(F)(F)F)n(-c3ccc4[nH]ncc4c3)c2n1 [Example 231, 4-[3-(1H-Indazol-5-yl)-2,5-bis(trifluoromethyl)imidazo[4,5-b]pyridin-7-yl]morpholine] | 3.98 |
| CCC(F)(F)c1nc2ccc(C(F)(F)F)nc2n1-c1ccc2[nH]ncc2c1 [Example 232, 2-(1,1-Difluoropropyl)-3-(1H-indazol-5-yl)-5-(trifluoromethyl)imidazo[4,5-b]pyridine] | 15.8 |
| O=c1[nH]c2ccc(-n3c(C(F)(F)C(F)(F)F)nc4ccc(C(F)(F)F)nc43)cc2s1 [Example 233, 6-[2-(1,1,2,2,2-Pentafluoroethyl)-5-(trifluoromethyl)imidazo[4,5-b]pyridin-3-yl]-3H-1,3-benzothiazol-2-one] | 0.316 |
